Laboratory results taken from BindingDB's records for doi:10.1016/s0960-894x(00)00321-8 (Dupont Pharmaceuticals, 2000).

What follows are compounds tested against T1, Gag-Pol polyprotein [588-1027]/[588-1147] (Human immunodeficiency virus 1, UniProt P04585) (assay: HIV-1 RT Assay). Conditions: pH 8.2; 37 °C.
T1 construct: 588-1027; 588-1147
Excerpt: The IC50 of reverse transcriptase is the concentration that inhibits 50% of recombinant HIV-1 RT RNA-directed DNA polymerase activity in vitro.
In the case of `CC(C)C(=O)N1c2ccccc2NC(=O)C1(C#CC1CC1)C(F)(F)F` (stereo not drawn) [3-(2-cyclopropylethynyl)-4-(2-methylpropanoyl)-3-(trifluoromethyl)-1,2,3,4-tetrahydroquinoxalin-2-one], the IC50 is reported as 160 nM. `O=C(c1ccccc1)N1c2ccccc2NC(=O)C1(C#CC1CC1)C(F)(F)F` (stereo not drawn) [4-benzoyl-3-(2-cyclopropylethynyl)-3-(trifluoromethyl)-1,2,3,4-tetrahydroquinoxalin-2-one] was tested, and the IC50 was over 5000 nM. With `O=C(C1CC1)N1c2ccccc2NC(=O)C1(C#CC1CC1)C(F)(F)F` (stereo not drawn) [4-cyclopropanecarbonyl-3-(2-cyclopropylethynyl)-3-(trifluoromethyl)-1,2,3,4-tetrahydroquinoxalin-2-one] the IC50 was 127 nM.
